Results taken from PubChem BioAssay (NCI).
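The concentration for 50% growth inhibition is given as GI50. At the TGI there is no net growth.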

Legend:
Experiment in all cases: DTP human tumour cell line panel, 384-well format
786-0 renal = test system: 786-0 renal
A498 renal = test system: A498 renal
A549 NSCLC = test system: A549 NSCLC
ACHN renal = test system: ACHN renal
CAKI-1 renal = test system: CAKI-1 renal
CCRF-CEM leukemia = test system: CCRF-CEM leukemia
COLO 205 colon = test system: COLO 205 colon
DU-145 prostate = test system: DU-145 prostate
EKVX NSCLC = test system: EKVX NSCLC
HCT-116 colon = test system: HCT-116 colon
HCT-15 colon = test system: HCT-15 colon
HL-60(TB) leukemia = test system: HL-60(TB) leukemia
HOP-62 NSCLC = test system: HOP-62 NSCLC
HOP-92 NSCLC = test system: HOP-92 NSCLC
HT29 colon = test system: HT29 colon
IGROV1 ovarian = test system: IGROV1 ovarian
K-562 leukemia = test system: K-562 leukemia
KM12 colon = test system: KM12 colon
LOX IMVI melanoma = test system: LOX IMVI melanoma
MALME-3M melanoma = test system: MALME-3M melanoma
MDA-MB-231 breast = test system: MDA-MB-231 breast
MDA-MB-468 breast = test system: MDA-MB-468 breast
NCI-H226 lung = test system: NCI-H226 lung
NCI-H23 lung = test system: NCI-H23 lung
NCI-H322M lung = test system: NCI-H322M lung
NCI-H522 lung = test system: NCI-H522 lung
NCI/ADR-RES ovarian = test system: NCI/ADR-RES ovarian
OVCAR-3 ovarian = test system: OVCAR-3 ovarian
OVCAR-4 ovarian = test system: OVCAR-4 ovarian
OVCAR-5 ovarian = test system: OVCAR-5 ovarian
OVCAR-8 ovarian = test system: OVCAR-8 ovarian
PC-3 prostate = test system: PC-3 prostate
RPMI-8226 leukemia = test system: RPMI-8226 leukemia
SF-268 CNS = test system: SF-268 CNS
SF-295 CNS = test system: SF-295 CNS
SK-MEL-2 melanoma = test system: SK-MEL-2 melanoma
SK-MEL-28 melanoma = test system: SK-MEL-28 melanoma
SK-MEL-5 melanoma = test system: SK-MEL-5 melanoma
SK-OV-3 ovarian = test system: SK-OV-3 ovarian
SN12C renal = test system: SN12C renal
SNB-19 CNS = test system: SNB-19 CNS
SNB-75 CNS = test system: SNB-75 CNS
SR leukemia = test system: SR leukemia
SW-620 colon = test system: SW-620 colon
T-47D breast = test system: T-47D breast
U251 glioblastoma = test system: U251 glioblastoma
UACC-62 melanoma = test system: UACC-62 melanoma

Structure (SMILES): COCCOc1cc(F)c2c(Nc3ccc(NC(=O)Cn4cc(C(C)C)nn4)cc3)ncnc2c1
- GI50 ([…]-0 renal): 49.7 µM
- TGI (786-0 renal): > 100 µM
- GI50 (A498 renal): 79.9 µM
- TGI (A498 renal): > 100 µM
- GI50 (A549 NSCLC): 53.2 µM
- TGI (A549 NSCLC): > 100 µM
- GI50 (ACHN renal): > 100 µM
- TGI (ACHN renal): > 100 µM
- GI50 (CAKI-1 renal): 38.4 µM
- TGI (CAKI-1 renal): > 100 µM
- GI50 (CCRF-CEM leukemia): 7.64 µM
- TGI (CCRF-CEM leukemia): 37.9 µM
- GI50 (COLO 205 colon): 40.8 µM
- TGI (COLO 205 colon): > 100 µM
- GI50 (DU-145 prostate): 75 µM
- TGI (DU-145 prostate): > 100 µM
- GI50 (EKVX NSCLC): 41 µM
- TGI (EKVX NSCLC): > 100 µM
- GI50 (HCT-116 colon): 48.7 µM
- TGI (HCT-116 colon): > 100 µM
- GI50 (HCT-15 colon): 24.9 µM
- TGI (HCT-15 colon): > 100 µM
- GI50 (HL-60(TB) leukemia): 17.3 µM
- TGI (HL-60(TB) leukemia): 37.9 µM
- GI50 (HOP-62 NSCLC): 18.1 µM
- TGI (HOP-62 NSCLC): > 100 µM
- GI50 (HOP-92 NSCLC): 30.7 µM
- TGI (HOP-92 NSCLC): > 100 µM
- GI50 (HT29 colon): > 100 µM
- TGI (HT29 colon): > 100 µM
- GI50 (IGROV1 ovarian): 53.5 µM
- TGI (IGROV1 ovarian): > 100 µM
- GI50 (K-562 leukemia): 3.25 µM
- TGI (K-562 leukemia): > 100 µM
- GI50 (KM12 colon): 0.56 µM
- TGI (KM12 colon): > 100 µM
- GI50 (LOX IMVI melanoma): 43.6 µM
- TGI (LOX IMVI melanoma): > 100 µM
- GI50 (MALME-3M melanoma): 25 µM
- TGI (MALME-3M melanoma): > 100 µM
- GI50 (MDA-MB-231 breast): 30.5 µM
- TGI (MDA-MB-231 breast): > 100 µM
- GI50 (MDA-MB-468 breast): 7.69 µM
- TGI (MDA-MB-468 breast): > 100 µM
- GI50 (NCI-H226 lung): 7.16 µM
- TGI (NCI-H226 lung): > 100 µM
- GI50 (NCI-H23 lung): 35.6 µM
- TGI (NCI-H23 lung): > 100 µM
- GI50 (NCI-H322M lung): > 100 µM
- TGI (NCI-H322M lung): > 100 µM
- GI50 (NCI-H522 lung): 18.1 µM
- TGI (NCI-H522 lung): 92.3 µM
- GI50 (NCI/ADR-RES ovarian): > 100 µM
- TGI (NCI/ADR-RES ovarian): > 100 µM
- GI50 (OVCAR-3 ovarian): 50.7 µM
- TGI (OVCAR-3 ovarian): > 100 µM
- GI50 (OVCAR-4 ovarian): > 100 µM
- TGI (OVCAR-4 ovarian): > 100 µM
- GI50 (OVCAR-5 ovarian): 87.8 µM
- TGI (OVCAR-5 ovarian): > 100 µM
- GI50 (OVCAR-8 ovarian): 26.7 µM
- TGI (OVCAR-8 ovarian): > 100 µM
- GI50 (PC-3 prostate): 62.9 µM
- TGI (PC-3 prostate): > 100 µM
- GI50 (RPMI-8226 leukemia): 5.06 µM
- TGI (RPMI-8226 leukemia): 34.3 µM
- GI50 (SF-268 CNS): 43.1 µM
- TGI (SF-268 CNS): > 100 µM
- GI50 (SF-295 CNS): > 100 µM
- TGI (SF-295 CNS): > 100 µM
- GI50 (SK-MEL-2 melanoma): 66.7 µM
- TGI (SK-MEL-2 melanoma): > 100 µM
- GI50 (SK-MEL-28 melanoma): > 100 µM
- TGI (SK-MEL-28 melanoma): > 100 µM
- GI50 (SK-MEL-5 melanoma): 11.2 µM
- TGI (SK-MEL-5 melanoma): > 100 µM
- GI50 (SK-OV-3 ovarian): 86.1 µM
- TGI (SK-OV-3 ovarian): > 100 µM
- GI50 (SN12C renal): 12.9 µM
- TGI (SN12C renal): > 100 µM
- GI50 (SNB-19 CNS): > 100 µM
- TGI (SNB-19 CNS): > 100 µM
- GI50 (SNB-75 CNS): 11.9 µM
- TGI (SNB-75 CNS): > 100 µM
- GI50 (SR leukemia): 10.1 µM
- TGI (SR leukemia): 41.5 µM
- GI50 (SW-620 colon): 52 µM
- TGI (SW-620 colon): > 100 µM
- GI50 (T-47D breast): 5.9 µM
- TGI (T-47D breast): > 100 µM
- GI50 (U251 glioblastoma): 57.9 µM
- TGI (U251 glioblastoma): > 100 µM
- GI50 (UACC-62 melanoma): 31.1 µM
- TGI (UACC-62 melanoma): > 100 µM
